In publication PMC12860872, “Preclinical evaluation of DOTAGA.Glu.(FAPI)2 and DO3A.Glu.(FAPI)2 as theranostics with human dosimetry extrapolation to lutetium-177 and terbium-161 analogs” (European Journal of Nuclear Medicine and Molecular Imaging, 2025):
Where “and” joins values, the source holds several entries; their conditions need not be identical. Identical values can stand only once.

Tests used:
PC3-mice = experiment: Biodistribution in PC3-mice incl. blocking; format: in vivo, mouse; settings: PC3-mice
Protocol: Male athymic Balb/C nude mice (6 weeks/20–25 g) were implanted with PC3 cells (3.5 × 10^6/100 µL PBS) into their right shoulder to develop tumors. The animals were used for biodistribution and PET/SPECT/CT imaging studies, once tumors reached 250–300 mm^3.
All mice were euthanized with intraperitoneal injection of pentobarbital (150 mg/kg), and selected organs were dissected, weighed, and measured for radioactivity using a gamma-counter. Results are expressed as % injected activity per gram tissue (% I.A./g), presented as mean ± SD (n = 3–4).

[1] = Blood clearance kinetics in healthy mice; format: in vivo, mouse; settings: i.v., Two-Phase Decay Model
Protocol: Blood samples were collected from the facial vein at 1, 3, 5, 7, 10, 15, 20, 30, 45, 60, 240, and 1440 min p.i., weighed, and measured for radioactivity using a γ-counter. Results were expressed as % I.A./g of blood and plotted over time. The initial and terminal half-lives were determined using Two-Phase Decay Model. The biological half-lives of selected organs were calculated from the biodistribution data using One-Phase Decay Model (GraphPad Prism 8).

[2] = Blocking 4h (20 nmol unlabeled precursor)

Uptake in Adrenal (PC3-mice; 4 h p.i.): 3.7±1 %I.A./g
Uptake in Blood (PC3-mice; 4 h p.i.): 2.3±0.3 %I.A./g
Uptake in Bone (PC3-mice; 4 h p.i.): 5.2±0.2 %I.A./g
Uptake in Heart (PC3-mice; 4 h p.i.): 1.2±0.5 %I.A./g
Uptake in Intestine (PC3-mice; 4 h p.i.): 0.9±0.4 %I.A./g
Uptake in Kidney (PC3-mice; 4 h p.i.): 1.5±0.4 %I.A./g
Uptake in Liver (PC3-mice; 4 h p.i.): 1.7±0.1 %I.A./g
Uptake in Lung (PC3-mice; 4 h p.i.): 1.6±0.02 %I.A./g
Uptake in Muscle (PC3-mice; 4 h p.i.): 1.9±0.3 %I.A./g
Uptake in Pancreas (PC3-mice; 4 h p.i.): 2.3±0.4 %I.A./g
Uptake in Salivary glands (PC3-mice; 4 h p.i.): 8.2±1.3 %I.A./g
Uptake in Spleen (PC3-mice; 4 h p.i.): 1.2±0.1 %I.A./g
Uptake in Stomach (PC3-mice; 4 h p.i.): 0.9±0.2 %I.A./g
Uptake in Tumor (PC3-mice; 4 h p.i.): 15±1.3 %I.A./g
Uptake in Adrenal (PC3-mice; 24 h p.i.): 1.5±0.2 %I.A./g
Uptake in Blood (PC3-mice; 24 h p.i.): 0.9±0.1 %I.A./g
Uptake in Bone (PC3-mice; 24 h p.i.): 2±0.1 %I.A./g
Uptake in Gallbladder (PC3-mice; 24 h p.i.): 1.3±0.03 %I.A./g
Uptake in Heart (PC3-mice; 24 h p.i.): 0.4±0.03 %I.A./g
Uptake in Intestine (PC3-mice; 24 h p.i.): 0.4±0.1 %I.A./g
Uptake in Kidney (PC3-mice; 24 h p.i.): 0.9±0.1 %I.A./g
Uptake in Liver (PC3-mice; 24 h p.i.): 1.7±0.2 %I.A./g
Uptake in Lung (PC3-mice; 24 h p.i.): 0.6±0.03 %I.A./g
Uptake in Muscle (PC3-mice; 24 h p.i.): 1±0.1 %I.A./g
Uptake in Pancreas (PC3-mice; 24 h p.i.): 1±0.05 %I.A./g
Uptake in Salivary glands (PC3-mice; 24 h p.i.): 3.9±0.3 %I.A./g
Uptake in Spleen (PC3-mice; 24 h p.i.): 0.8±0.05 %I.A./g
Uptake in Stomach (PC3-mice; 24 h p.i.): 0.4±0.03 %I.A./g
Uptake in Tumor (PC3-mice; 24 h p.i.): 7.5±1.2 %I.A./g
Uptake in Adrenal (PC3-mice; 48 h p.i.): 1.1±0.5 %I.A./g
Uptake in Blood (PC3-mice; 48 h p.i.): 0.2±0.03 %I.A./g
Uptake in Bone (PC3-mice; 48 h p.i.): 1±0.1 %I.A./g
Uptake in Gallbladder (PC3-mice; 48 h p.i.): 0.6±0.1 %I.A./g
Uptake in Heart (PC3-mice; 48 h p.i.): 0.1±0.01 %I.A./g
Uptake in Intestine (PC3-mice; 48 h p.i.): 0.1±0.04 %I.A./g
Uptake in Kidney (PC3-mice; 48 h p.i.): 0.4±0.1 %I.A./g
Uptake in Liver (PC3-mice; 48 h p.i.): 1.1±0.2 %I.A./g
Uptake in Lung (PC3-mice; 48 h p.i.): 0.2±0.1 %I.A./g
Uptake in Muscle (PC3-mice; 48 h p.i.): 0.4±0.04 %I.A./g
Uptake in Pancreas (PC3-mice; 48 h p.i.): 0.3±0.01 %I.A./g
Uptake in Salivary glands (PC3-mice; 48 h p.i.): 1.1±0.3 %I.A./g
Uptake in Spleen (PC3-mice; 48 h p.i.): 0.5±0.05 %I.A./g
Uptake in Stomach (PC3-mice; 48 h p.i.): 0.2±0.05 %I.A./g
Uptake in Tumor (PC3-mice; 48 h p.i.): 3.1 ± 0.5 %I.A./g
Uptake in Adrenal (PC3-mice; 72 h p.i.): 0.3±0.1 %I.A./g
Uptake in Blood (PC3-mice; 72 h p.i.): 0.06±0 %I.A./g
Uptake in Bone (PC3-mice; 72 h p.i.): 0.4±0.005 %I.A./g
Uptake in Gallbladder (PC3-mice; 72 h p.i.): 0.4±0.2 %I.A./g
Uptake in Heart (PC3-mice; 72 h p.i.): 0.04±0.01 %I.A./g
Uptake in Intestine (PC3-mice; 72 h p.i.): 0.05±0.01 %I.A./g
Uptake in Kidney (PC3-mice; 72 h p.i.): 0.2±0.02 %I.A./g
Uptake in Liver (PC3-mice; 72 h p.i.): 0.8±0.1 %I.A./g
Uptake in Lung (PC3-mice; 72 h p.i.): 0.1±0.01 %I.A./g
Uptake in Muscle (PC3-mice; 72 h p.i.): 0.1±0.01 %I.A./g
Uptake in Pancreas (PC3-mice; 72 h p.i.): 0.1±0.02 %I.A./g
Uptake in Salivary glands (PC3-mice; 72 h p.i.): 0.3±0.1 %I.A./g
Uptake in Spleen (PC3-mice; 72 h p.i.): 0.3±0.04 %I.A./g
Uptake in Stomach (PC3-mice; 72 h p.i.): 0.05±0 %I.A./g
Uptake in Tumor (PC3-mice; 72 h p.i.): 1.4±0.1 %I.A./g
Uptake in Adrenal (PC3-mice; 96 h p.i.): 0.2±0.1 %I.A./g
Uptake in Blood (PC3-mice; 96 h p.i.): 0.02±0.01 %I.A./g
Uptake in Bone (PC3-mice; 96 h p.i.): 0.3±0.1 %I.A./g
Uptake in Gallbladder (PC3-mice; 96 h p.i.): 0.1±0.02 %I.A./g
Uptake in Heart (PC3-mice; 96 h p.i.): 0.02±0.01 %I.A./g
Uptake in Intestine (PC3-mice; 96 h p.i.): 0.02±0.01 %I.A./g
Uptake in Kidney (PC3-mice; 96 h p.i.): 0.1±0.01 %I.A./g
Uptake in Liver (PC3-mice; 96 h p.i.): 0.7±0.1 %I.A./g
Uptake in Lung (PC3-mice; 96 h p.i.): 0.1±0.1 %I.A./g
Uptake in Muscle (PC3-mice; 96 h p.i.): 0.04±0 %I.A./g
Uptake in Pancreas (PC3-mice; 96 h p.i.): 0.03±0.01 %I.A./g
Uptake in Salivary glands (PC3-mice; 96 h p.i.): 0.1±0.03 %I.A./g
Uptake in Spleen (PC3-mice; 96 h p.i.): 0.4±0.05 %I.A./g
Uptake in Stomach (PC3-mice; 96 h p.i.): 0.03±0.01 %I.A./g
Uptake in Tumor (PC3-mice; 96 h p.i.): 1±0.03 %I.A./g
Uptake in Adrenal (PC3-mice; [2]): 0.3±0.04 %I.A./g
Uptake in Blood (PC3-mice; [2]): 0.2±0.04 %I.A./g
Uptake in Bone (PC3-mice; [2]): 0.4±0.1 %I.A./g
Uptake in Heart (PC3-mice; [2]): 0.1±0.01 %I.A./g
Uptake in Intestine (PC3-mice; [2]): 0.4±0.02 %I.A./g
Uptake in Kidney (PC3-mice; [2]): 2.8±0.2 %I.A./g
Uptake in Liver (PC3-mice; [2]): 1.1±0.01 %I.A./g
Uptake in Lung (PC3-mice; [2]): 0.5±0.1 %I.A./g
Uptake in Muscle (PC3-mice; [2]): 0.1±0.01 %I.A./g
Uptake in Pancreas (PC3-mice; [2]): 0.1±0.01 %I.A./g
Uptake in Salivary glands (PC3-mice; [2]): 0.3±0.01 %I.A./g
Uptake in Spleen (PC3-mice; [2]): 0.4±0.03 %I.A./g
Uptake in Stomach (PC3-mice; [2]): 0.2±0.1 %I.A./g
Uptake in Tumor (PC3-mice; [2]): 1.1±0.4 %I.A./g
tumor uptake (PC3-mice; at 1 h p.i. as printed): ~ 15 %I.A./g
drop of tumor uptake (washed-out) (PC3-mice; at 24 h vs 4 h p.i.): ~ 50%
Blood half life (initial) [1]: 1.3 min
Blood half life (terminal) [1]: 4.172 h and 4.17 h
Compound: N#C[C@@H]1CC(F)(F)CN1C(=O)CNC(=O)c1ccnc2ccc(OCCCCNC(=O)CC[C@H](NC(=O)CN3CCN(CC(=O)[O-])CCN(CC(=O)[O-])CCN(CC(=O)[O-])CC3)C(=O)NCCCCOc3ccc4nccc(C(=O)NCC(=O)N5CC(F)(F)C[C@H]5C#N)c4c3)cc12.[177Lu+3] [[^177Lu]Lu-DO3A.Glu.(FAPI)2]
